Data published in patent US20150164762A1, “USE OF ETHANOLAMINE PHOSPHATE” (priority 2012, published 2015).

Tested on: BEAS-2B
Test: Comprehensive gene expression analysis with Whole Human Genome DNA microarray after EP treatment
Assay type: cell-based
Experimental: Cells of the established normal human airway epithelial cell line BEAS-2B were used in the experiment. These cells were expansively cultured in 10% FBS RPMI-1640, and seeded at a density of 1×10^5/cm^2 on a 24-well plate. After 24 hours 0.1% FBS RPMI-1640 was substituted, and EP was administered to a final concentration of 0 or 1 mM (n=4). After 24 hours, the cells were used as the DNA microarray samples. RNA was extracted using a QIAGEN RNeasy Mini Kit. The DNA microarray test was performed using a Whole Human Genome DNA microarray 4×44K (Agilent), and the necessary labeling reagents and the like for the DNA microarray test were all from Agilent. The DNA microarray test data were analyzed statistically with GeneSpring (Agilent) dedicated analysis software, and gene function analysis (Gene Ontology (GO) analysis) was performed based on differential expression. The purpose of the GO analysis is to determine stochastically the degree to which gene sets with statistically significant differential expression correspond to known functional classification gene sets. […] The p-value is calculated according to the following formula.

[1] = probe A_23_P306987, 1 mM EP, 24 h
[2] = probe A_23_P315815, NM_004495, EP vs control
[3] = probe A_23_P326913, BC019095, EP vs control
[4] = probe A_23_P336611, 1 mM EP, 24 h
[5] = probe A_23_P337242, 1 mM EP, 24 h
[6] = probe A_23_P344421, 1 mM EP, 24 h
[7] = probe A_23_P346311, 1 mM EP, 24 h
[8] = probe A_23_P358944, 1 mM EP, 24 h
[9] = probe A_23_P360777, NM_013960, EP vs control
[10] = probe A_23_P360797, 1 mM EP, 24 h
[11] = probe A_23_P371727, 1 mM EP, 24 h
[12] = probe A_23_P373521, 1 mM EP, 24 h
[13] = probe A_23_P382775, 1 mM EP, 24 h
[14] = probe A_23_P383278, NM_023078, EP vs control
[15] = probe A_23_P404887, 1 mM EP, 24 h
[16] = probe A_23_P407012, NM_172210, EP vs control
[17] = probe A_23_P411296, 1 mM EP, 24 h
[18] = probe A_23_P426305, NM_003734, EP vs control
[19] = probe A_23_P500034, 1 mM EP, 24 h
[20] = probe A_23_P502553, 1 mM EP, 24 h
[21] = probe A_23_P2094013, 1 mM EP, 24 h
[22] = probe A_24_P4661, 1 mM EP, 24 h
[23] = probe A_24_P12401, NM_001025366, EP vs control
[24] = probe A_24_P18105, NM_032466, EP vs control
[25] = probe A_24_P38363, 1 mM EP, 24 h
[26] = probe A_24_P60930, NM_006129, EP vs control
[27] = probe A_24_P83815, 1 mM EP, 24 h
[28] = probe A_24_P122921, 1 mM EP, 24 h
[29] = probe A_24_P135322, 1 mM EP, 24 h
[30] = probe A_24_P139152, 1 mM EP, 24 h
[31] = probe A_24_P139993, 1 mM EP, 24 h
[32] = probe A_24_P175519, NM_003329, EP vs control
[33] = probe A_24_P179400, NM_001025370, EP vs control
[34] = probe A_24_P193911, 1 mM EP, 24 h
[35] = probe A_24_P200000, NM_182915, EP vs control
[36] = probe A_24_P207479, 1 mM EP, 24 h
[37] = probe A_24_P209047, NM_000879, EP vs control

SMILES: NCCOP(=O)(O)O [EP, Ethanolamine phosphate]
- SOX7 expression R: Ratio to control [1]: 0.338 times
- SOX7 expression log2 [ratio] [1]: −1.568
- NRG1 gene expression, R* ratio to control [2]: 0.666 times
- NRG1 gene expression, log2 [ratio] [2]: −0.586
- PRUNE2 gene expression, R* ratio to control [3]: 1.441 times
- PRUNE2 gene expression, log2 [ratio] [3]: 0.527
- APAF1 expression R*: Ratio to control [4]: 0.420 times
- APAF1 expression log2 [ratio] [4]: −1.253
- TGFBR2 expression R*: Ratio to control [5]: 1.630 times
- TGFBR2 expression log2 [ratio] [5]: 0.705
- ROBO4 expression R*: Ratio to control [6]: 1.633 times
- ROBO4 expression log2 [ratio] [6]: 0.707
- BAX expression R*: Ratio to control [7]: 0.511 times
- BAX expression log2 [ratio] [7]: −0.969
- PML expression R: Ratio to control [8]: 0.586 times
- PML expression log2 [ratio] [8]: −0.770
- NRG1 gene expression, R* ratio to control [9]: 0.651 times
- NRG1 gene expression, log2 [ratio] [9]: −0.620
- NTF3 expression R: Ratio to control [10]: 0.492 times
- NTF3 expression log2 [ratio] [10]: −1.024
- CKS2 expression R*: Ratio to control [11]: 1.510 times
- CKS2 expression log2 [ratio] [11]: 0.595
- HAND2 expression R*: Ratio to control [12]: 1.971 times
- HAND2 expression log2 [ratio] [12]: 0.979
- BBC3 expression R*: Ratio to control [13]: 0.315 times
- BBC3 expression log2 [ratio] [13]: −1.566
- PYCRL gene expression, R* ratio to control [14]: 1.441 times
- PYCRL gene expression, log2 [ratio] [14]: 0.527
- BIK expression R*: Ratio to control [15]: 0.298 times
- BIK expression log2 [ratio] [15]: −1.743
- CSF1 gene expression, R* ratio to control [16]: 0.593 times
- CSF1 gene expression, log2 [ratio] [16]: −0.753
- CEBPB expression R*: Ratio to control [17]: 0,383 times
- CEBPB expression log2 [ratio] [17]: −1.385
- AOC3 gene expression, R* ratio to control [18]: 1.540 times
- AOC3 gene expression, log2 [ratio] [18]: 0.623
- GL12 expression R*: Ratio to control [19]: 2.060 times
- GL12 expression log2 [ratio] [19]: 1.043
- TRIM35 expression R*: Ratio to control [20]: 0.618 times
- TRIM35 expression log2 [ratio] [20]: −0.695
- CASP10 expression R*: Ratio to control [21]: 0.552 times
- CASP10 expression log2 [ratio] [21]: −0.857
- E124 expression R*: Ratio to control [22]: 0.652 times
- E124 expression log2 [ratio] [22]: −0.618
- VEGFA gene expression, R* ratio to control [23]: 0.540 times
- VEGFA gene expression, log2 [ratio] [23]: −0.889
- ASPH gene expression, R* ratio to control [24]: 1.560 times
- ASPH gene expression, log2 [ratio] [24]: 0.642
- MYC expression R*: Ratio to control [25]: 1.686 times
- MYC expression log2 [ratio] [25]: 0.754
- BMP1 gene expression, R* ratio to control [26]: 0.613 times
- BMP1 gene expression, log2 [ratio] [26]: −0.706
- NLRP1 expression R*: Ratio to control [27]: 0.558 times
- NLRP1 expression log2 [ratio] [27]: −0.841
- BCL2L11 expression R*: Ratio to control [28]: 0.636 times
- BCL2L11 expression log2 [ratio] [28]: −0.652
- NRP1 expression R*: Ratio to control [29]: 1.664 times
- NRP1 expression log2 [ratio] [29]: 0.735
- COL8A1 expression R*: Ratio to control [30]: 1.703 times
- COL8A1 expression log2 [ratio] [30]: 0.768
- CASP10 expression R*: Ratio to control [31]: 0.609 times
- CASP10 expression log2 [ratio] [31]: −0.716
- TXN gene expression, R* ratio to control [32]: 1.438 times
- TXN gene expression, log2 [ratio] [32]: 0.524
- VEGFA gene expression, R* ratio to control [33]: 0.650 times
- VEGFA gene expression, log2 [ratio] [33]: −0.621
- MAPRE2 expression R*: Ratio to control [34]: 1.666 times
- MAPRE2 expression log2 [ratio] [34]: 0.736
- STEAP3 gene expression, R* ratio to control [35]: 2.009 times
- STEAP3 gene expression, log2 [ratio] [35]: 1.007
- DEDD2 expression R*: Ratio to control [36]: 0.597 times
- DEDD2 expression log2 [ratio] [36]: −0.744
- IL5 gene expression, R* ratio to control [37]: 0.304 times
- IL5 gene expression, log2 [ratio] [37]: −1.719
